From the supplement of paper PMC10307832

Tests used:
Assay in all cases: relative viability (nuclei count vs DMSO), 5 days (fraction); higher = more cells survive
Afatinib + Olaparib = compound: CN(C)C/C=C/C(=O)Nc1cc2c(Nc3ccc(F)c(Cl)c3)ncnc2cc1O[C@H]1CCOC1 [Afatinib] + O=C(c1cc(Cc2n[nH]c(=O)c3ccccc23)ccc1F)N1CCN(C(=O)C2CC2)CC1 [Olaparib] (partner 8 µM)
Method in brief: (§1)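 Relative viability divides the nuclei count in treated wells by that in vehicle wells. Lung cancer cell lines were seeded in 1536-well plates, dosed by pin tool the next day, and fixed and stained after 5 days in one step with final 0.05% Triton X-100, 1% formaldehyde and 1 ug/ml Hoechst. Dosing was a single drug or a fixed anchor-drug dose plus five library-drug doses (not always all listed) in √10 steps, and values are medians of duplicate plates imaged at 4×.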

Afatinib + Alpelisib = compound: CN(C)C/C=C/C(=O)Nc1cc2c(Nc3ccc(F)c(Cl)c3)ncnc2cc1O[C@H]1CCOC1 [Afatinib] + Cc1nc(NC(=O)N2CCC[C@H]2C(N)=O)sc1-c1ccnc(C(C)(C)C(F)(F)F)c1 [Alpelisib] (partner 2 µM)
Method in brief: as §1

Afatinib + Bortezomib = compound: CN(C)C/C=C/C(=O)Nc1cc2c(Nc3ccc(F)c(Cl)c3)ncnc2cc1O[C@H]1CCOC1 [Afatinib] + CC(C)C[C@H](NC(=O)[C@H](Cc1ccccc1)NC(=O)c1cnccn1)B(O)O [Bortezomib] (partner 0.002 µM)
Method in brief: as §1

Afatinib + Pemetrexed = compound: CN(C)C/C=C/C(=O)Nc1cc2c(Nc3ccc(F)c(Cl)c3)ncnc2cc1O[C@H]1CCOC1 [Afatinib] + Nc1nc2[nH]cc(CCc3ccc(C(=O)N[C@@H](CCC(=O)O)C(=O)O)cc3)c2c(=O)[nH]1 [Pemetrexed] (partner 0.2 µM)
Method in brief: as §1

Cell Line | relative viability (Afatinib + Olaparib; first compound 0.005 µM) | relative viability (Afatinib + Olaparib; first compound 0.01581 µM) | relative viability (Afatinib + Olaparib; first compound 0.05 µM) | relative viability (Afatinib + Olaparib; first compound 0.1581 µM) | relative viability (Afatinib + Olaparib; first compound 0.5 µM) | relative viability (Afatinib + Alpelisib; first compound 0.005 µM) | relative viability (Afatinib + Alpelisib; first compound 0.01581 µM) | relative viability (Afatinib + Alpelisib; first compound 0.05 µM) | relative viability (Afatinib + Alpelisib; first compound 0.1581 µM) | relative viability (Afatinib + Alpelisib; first compound 0.5 µM) | relative viability (Afatinib + Bortezomib; first compound 0.005 µM) | relative viability (Afatinib + Bortezomib; first compound 0.01581 µM) | relative viability (Afatinib + Bortezomib; first compound 0.05 µM) | relative viability (Afatinib + Bortezomib; first compound 0.1581 µM) | relative viability (Afatinib + Bortezomib; first compound 0.5 µM) | relative viability (Afatinib + Pemetrexed; first compound 0.005 µM) | relative viability (Afatinib + Pemetrexed; first compound 0.01581 µM) | relative viability (Afatinib + Pemetrexed; first compound 0.05 µM) | relative viability (Afatinib + Pemetrexed; first compound 0.1581 µM) | relative viability (Afatinib + Pemetrexed; first compound 0.5 µM)
A549 | 0.321 | 0.451 | 0.359 | 0.304 | 0.375 | 0.629 | 0.632 | 0.631 | 0.61 | 0.642 |  |  |  |  |  |  |  |  |  | 
ABC-1 | 0.779 |  | 1.04 | 1.04 | 0.561 | 1.26 | 0.856 | 0.947 | 0.931 | 0.988 | 0.32 | 0.342 | 0.349 | 0.271 | 0.304 |  |  |  |  | 
Calu-6 | 0.565 | 0.565 | 0.607 | 0.573 | 0.545 | 1.05 | 0.922 | 1.03 | 1.01 | 0.88 | 1.15 | 0.97 | 1.13 | 1 | 1.08 |  |  |  |  | 
ChaGo-K-1 | 0.466 | 0.439 | 0.447 | 0.396 | 0.397 |  |  |  |  |  | 1.18 | 0.92 | 0.8 | 0.924 | 1.07 | 0.246 | 0.262 | 0.268 | 0.257 | 0.247
EBC-1 | 0.714 | 0.76 | 0.745 | 0.676 | 0.734 | 0.787 | 0.835 | 0.905 | 0.81 | 0.915 | 0.594 | 0.59 | 0.562 | 0.507 | 0.705 |  |  |  |  | 
IA-LM | 1.07 | 0.821 | 0.947 | 0.761 | 0.805 | 0.653 | 0.658 | 0.691 | 0.693 | 0.797 | 0.929 | 0.719 | 0.796 | 0.828 | 0.825 |  |  |  |  | 
LK-2 | 0.705 | 0.591 | 0.725 | 0.766 | 0.79 | 1.34 |  | 1.04 | 1.12 | 1.12 |  |  |  |  |  | 0.33 | 0.229 | 0.239 | 0.326 | 0.248
NCI-H358 | 0.48 | 0.586 | 0.314 | 0.145 |  | 0.668 | 0.488 | 0.324 | 0.255 | 0.37 |  |  |  |  |  | 0.16 | 0.146 | 0.153 | 0.137 | 0.141
NCI-H522 | 0.573 | 0.726 | 0.639 | 0.532 | 0.464 |  |  |  |  |  |  |  |  |  |  | 0.928 | 0.889 | 0.916 | 0.666 | 0.807
NCI-H727 | 0.827 | 0.824 | 0.606 | 0.572 | 0.815 | 0.579 | 0.462 | 0.503 | 0.417 | 0.561 | 0.85 | 0.732 | 0.825 | 0.863 | 0.804 |  |  |  |  | 
NCI-H1299 | 0.981 | 0.948 | 0.991 | 1.02 | 0.988 | 1.05 | 1.04 | 1.12 | 1.08 | 1.04 | 0.983 | 0.978 | 1.12 | 1.02 | 1.04 |  |  |  |  | 
